5 compounds from PubChem BioAssay (NCI) can be followed below.

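In this assay, cells in 96-well plates receive the compound at five concentrations for 48 hours. Endpoints are linearly interpolated between the surrounding concentrations. At the TGI there is no net growth.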

Common to all, as to assay: inhibition of tumour cell growth, NCI panel, 48 h
Assay [1] relates to SK-MEL-2 melanoma.
Assay [2] has as its system CCRF-CEM leukemia.
Assay [3] relates to NCI-H460 lung.
In assay [4] the test system is MDA-MB-435.
In assay [5] the test system is NCI-H522 lung.
Assay [6] has as its system SNB-19 CNS.
Assay [7] relates to OVCAR-4 ovarian.
The test system of assay [8] is SK-OV-3 ovarian.
The test system of assay [9] is 786-0 renal.
Assay [10] deals with SF-268 CNS.

Take `CCCCC(=C=C(C)CO)C1CCCN1C(=O)OC(C)(C)C` (stereo not given): the TGI in assay [1] was determined as 30.6 µM; in [2], 33.2 µM; in [3], 31.8 µM; in [4] it was 35.8 µM; in assay [5] it was 29 µM; in [6] it was 60.2 µM. Besides, the TGI came out at 39.3 µM in [7], 67.4 µM in assay [8], 30.5 µM in assay [9] and 33.5 µM in assay [10].
Consider `CCOC(=O)C1(C#N)C2(C#N)C(N)=NC(ON=C(C)C)(ON=C(C)C)C12C#N` (stereo not given), for which the TGI in assay [1], in [2], in [3], in assay [4], in assay [5] and in [6] was above 100 µM throughout. Further, the TGI in [7], in assay [8], in assay [9] and in [10] was above 100 µM each time.
`O=C(/C=C/c1ccc(OCc2ccccc2)cc1)NCc1ccc(C(=O)NCc2ccccc2)cc1`: the TGI in [1], in [2], in [3], in [4], in assay [5] and in [6] was above 100 µM each time. For the same compound, the TGI in [7], in assay [8], in assay [9] and in assay [10] was above 100 µM each time.
`CC(=O)NNc1nc(C)c(C(/C=C/c2ccc([N+](=O)[O-])cc2)=N/NC(N)=O)s1`: the TGI in assay [1], in [2], in [3], in assay [4], in assay [5] and in assay [6] was above 100 µM throughout. Also, the TGI in assay [7], in [8], in assay [9] and in assay [10] was above 100 µM throughout.
In the case of `Nc1nc2c(c(-c3ccccc3Cl)n1)COC/C2=C\c1ccccc1Cl`, the TGI in assay [1] was 31 µM; in assay [2], 32.8 µM; in assay [3], 39 µM; in assay [4], 24.7 µM; in assay [5] it was 31 µM; in assay [6], 29.8 µM. Further, the TGI worked out at 39 µM in assay [7], 30 µM in assay [8], 33.1 µM in assay [9] and 34.3 µM in [10].
